We go through 9 molecules from paper PMC12670400, “LEKTI-Grafted Sunflower Trypsin Inhibitor: A Potential Therapeutic for Skin Diseases” (Journal of Medicinal Chemistry, 2025).

One assay concerns thrombin. Also noted: method as in PMID 143965. The conditions noted are these: cited from earlier work.
For assay [1], the system named is plasmin. Also noted: method as in PMID 143965. As to conditions: cited from earlier work.
For the next assay, the system named is trypsin. Also noted: method as in PMID 143965. As to conditions: cited from earlier work.
In another assay the test system is plasma kallikrein. Also noted: method as in PMID 143965. The conditions noted are these: cited from earlier work.
Assay [2] deals with T1, KLK7 (Homo sapiens, UniProt P49862). Briefly: Protease activity assay: inhibition of recombinant KLK7 (Mca-RPKPVE-Nval-WRK(Dnp)-NH2 substrate). In kind it is biochemical. The conditions noted are these: n = 3; 100 nM KLK7, 37°C, 20 hours; read-out: IC50 (n = 3)/nM for KLKs: KLK7. Also noted: purchased R&D Systems 2624-SE. An excerpt:
using the following equation: […]
(1 picture or pasted object on this page, not shown here)

The target of assay [3] is T2, KLK5 (Homo sapiens, UniProt Q9Y337).
T2 construct: purchased R&D Systems 1108-SE
T2 sequence (Q9Y337 23-293): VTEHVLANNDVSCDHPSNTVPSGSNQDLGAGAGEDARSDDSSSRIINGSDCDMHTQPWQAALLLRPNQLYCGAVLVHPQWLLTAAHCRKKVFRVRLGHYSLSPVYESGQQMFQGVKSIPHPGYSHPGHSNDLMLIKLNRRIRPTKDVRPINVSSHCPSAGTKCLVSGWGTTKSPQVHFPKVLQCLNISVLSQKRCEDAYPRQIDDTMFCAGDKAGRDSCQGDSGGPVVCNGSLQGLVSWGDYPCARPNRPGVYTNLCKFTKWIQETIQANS
Briefly: Protease activity assay: inhibition of recombinant KLK5 (Boc-VPR-AMC substrate). The class given is biochemical. The conditions noted are these: for selectivity for KLK5 against select KLKs in skin: KLK5 versus other skin KLKs; for IC50: n = 3, 10 nM KLK5, Boc-VPR-AMC 100 µM, PBS pH 8.0, read-out: IC50 (n = 3)/nM for KLKs: KLK5. The protocol: Inhibitory activity against KLK5 was evaluated using the fluorogenic substrate Boc-VPR-AMC for KLK5 (Table ). […] The P1–P1′ reactive site (Arg5 to Ser6) is critical for inhibitor binding, with the P1′ position contributing up to 50% of the total association energy. , The conserved serine at P1′ in Bowman-Birk inhibitors (BBIs) is essential for function. […] Preservation of serine in the P1′ position restored inhibitory activity seen in 5 and 6. Preserving the native serine restored efficacy to the nanomolar range (5: 31 ± 7 nM; 6: 114 ± 11 nM).
Methods for biological experiment
SFTI analogues were created by individual amino acid substitutions in PYMOL (Python Molecular Graphics System) using the existing solution NMR structure of native SFTI - 1 (1JBL) found in the RCSB (Research Collaboratory for Structural Bioinformatics) database. Residues of 2 were mutated as follows: L5R, I10H, and F12W with conserved SFTI-1 backbone structure. Other SFTI based analogues were further modified using PYMOL. Currently, there are no SFTI-1 and Kallikrein 5 co-crystal structures found in the RCSB database. Superimposing the existing crystal structure of SFTI-1 and Trypsin complex (4XOJ) with Kallikrein 5 crystal structure (2PSX) was performed with PYMOL. Ab-initio docking between KLK5 and 2 were performed with HADDOCK 2.4 1, 2, with binding active site parameter set to Arg2, Cys3, Thr4, Arg5, Ser6 for 2 and Ser195, His57, and Asp102 for KLK5 catalytic triad. PRODIGY 3-5, set at 25 °C, was used to predict dissociation constant and binding interactions of docked clusters. Structural visualization and alignment were performed with PYMOL 6, and comparative sequence analysis was performed with MEGA11 7.
A fluorescence spectrometer using SpectraMax® i3x plate reader (Molecular Devices, United States) was used to measure the relative fluorescence unit (RFU) on a 96-well black microplate (Grenier Bio-one, cat no. 655074). The wavelengths were set to 360/460 nm (excitation/emission) for the substrate Boc-VPR-AMC (Bachem AG, cat no. 4003460) and 320/405nm for the substrate Mca-RPKPVE-Nval-WRK(Dnp)-NH2 Fluorogenic MMP Substrate (R&D Systems Biotechne, cat no.ES002). The Boc-VPR-AMC stock solution was prepared by dissolving the solid form in dimethyl sulfoxide to 100 mM. Mca-RPKPVE-Nval-WRK(Dnp)-NH2 fluorogenic MMP Substrate is supplied as stock solution at 10.0 mg/mL in dimethyl sulfoxide. Boc-VPR-AMC was used as a substrate for KLK5, 8 and 14. Mca-RPKPVE-Nval-WRK(Dnp)-NH2 was used as a substrate for KLK7. The ligand-only solution serves as a negative control (minimum RFU, 100% inhibition), and enzyme-only was served as positive (maximum RFU, 0% inhibition). The activities of proteases were measured and readout against the standard curve made in serial dilutions of tested recombinant KLKs, ranging from 0nM to 60nM. Each assay was done in triplicates and repeated at least for three times […]
Assessment of analogue mediated inhibition of KLK5, KLK7, KLK8, and KLK14 […]
Recombinant KLK5 (R&D Systems, cat no. 1108-SE) was diluted to a final concentration of 10 nM in 1X PBS (pH 8.0). KLK5 was pre -incubated on ice for 1 hour with serial dilutions of SFTI-derived analogues to assess inhibitory activity. After incubation, 20 µL of each mixture was transferred to we lls of a 96-well microplate in triplicates. The enzymatic reaction was initiated by adding 100 µL of Boc -VPR-AMC substrate (final concentration 100 µM) to each well. Fluorescence (RFU) was measured using a SpectraMax® i3x plate reader with chamber temperature maintained at 37°C. Readings were started at 0 minutes (baseline) and another […]
Recombinant KLK7 (R&D Systems , cat no. 2624-SE) and KLK14 (R&D Systems, cat no. 2664-SE) were activated by adding 1 mM CaCl ₂ 0.05% v/v Brij-35 (Sigma, cat no. […]
incubated at 37°C for 1 hour. Reactions were stopped by adding EDTA to a final concentration of 50 mM (Sigma, cat no. EDS-100G) KLK8 (catalytic domain only; R&D Systems, cat no. 2025-SE-010) was activated separately with 11 nM lysyl […]

Assay [4] has as its target plasmin. Also noted: method as in PMID 7543841. The conditions noted are these: read-out: Ki against trypsin-like plasmin; cited from earlier work.
In the next assay the target is LEKTI-2 (Homo sapiens) (UniProt Q5DT21). As to conditions: cited from earlier work.
Assay [5] concerns the target T3, KLK8 (UniProt O60259 33-260).
T3 construct: Kallikrein 8 (KLK8); construct and source are in the Supporting Information
T3 sequence (looked up): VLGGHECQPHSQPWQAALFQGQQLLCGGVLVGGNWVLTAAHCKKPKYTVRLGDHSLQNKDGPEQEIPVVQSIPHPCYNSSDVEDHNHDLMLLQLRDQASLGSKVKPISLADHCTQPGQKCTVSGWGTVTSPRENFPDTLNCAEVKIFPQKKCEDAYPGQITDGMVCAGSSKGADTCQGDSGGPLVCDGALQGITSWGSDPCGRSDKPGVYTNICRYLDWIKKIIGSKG
Description: enzyme inhibition assay (fluorogenic substrate); selectivity: inhibition of KLK7, KLK8 or KLK14 activity by the peptide, n = 3; substrates and conditions in the Supporting Information.

Assay [6] addresses Kallikrein-related peptidase 5 (KLK5) (UniProt Q9Y337). Briefly: enzyme inhibition assay (fluorogenic substrate); inhibition of KLK5 activity by the peptide, fluorogenic substrate Boc-VPR-AMC, n = 3; conditions in the Supporting Information.
The target of assay [7] is T4, KLK14 (UniProt Q9P0G3).
T4 sequence (Q9P0G3 41-267, species assumed, looked up): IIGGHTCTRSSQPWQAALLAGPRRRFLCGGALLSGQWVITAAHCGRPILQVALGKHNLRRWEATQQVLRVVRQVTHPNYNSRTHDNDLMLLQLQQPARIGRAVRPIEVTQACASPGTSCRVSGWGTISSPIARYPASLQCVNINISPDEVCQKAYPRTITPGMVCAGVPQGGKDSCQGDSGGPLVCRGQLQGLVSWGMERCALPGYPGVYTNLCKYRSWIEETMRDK
Description: enzyme inhibition assay (fluorogenic substrate); selectivity: inhibition of KLK7, KLK8 or KLK14 activity by the peptide, n = 3; substrates and conditions in the Supporting Information.

Assay [8] deals with T2, KLK5. Also noted: method as in Chen et al. (2016). As to conditions: earlier work of the authors; ref Chen et al. (2016); read-out: IC50 (n = 3)/nM for KLKs: KLK5; cited from earlier work.
For assay [9], the target named is T5, KLK8 (Homo sapiens, UniProt O60259).
T5 construct: purchased R&D Systems 2025-SE-010
T5 sequence (O60259 33-260): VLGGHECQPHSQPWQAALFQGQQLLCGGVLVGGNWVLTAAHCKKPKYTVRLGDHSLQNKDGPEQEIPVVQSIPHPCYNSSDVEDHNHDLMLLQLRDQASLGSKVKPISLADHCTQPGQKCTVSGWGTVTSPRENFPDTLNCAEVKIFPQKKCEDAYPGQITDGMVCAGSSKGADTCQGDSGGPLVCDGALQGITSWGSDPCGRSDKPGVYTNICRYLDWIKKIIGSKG
Also noted: method as in Chen et al. (2016). The conditions noted are these: ref Chen et al. (2016); read-out: IC50 (n = 3)/nM for KLKs: KLK8; cited from earlier work.

For a further assay, the target named is aprotinin (Bos taurus) (UniProt P00974). The conditions noted are these: cited from earlier work.
For assay [10], the target named is T1, KLK7. Also noted: purchased R&D Systems 2624-SE. The conditions noted are these: prior findings, reference not given; cited from earlier work.
Target sequence in this assay (P49862 30-253): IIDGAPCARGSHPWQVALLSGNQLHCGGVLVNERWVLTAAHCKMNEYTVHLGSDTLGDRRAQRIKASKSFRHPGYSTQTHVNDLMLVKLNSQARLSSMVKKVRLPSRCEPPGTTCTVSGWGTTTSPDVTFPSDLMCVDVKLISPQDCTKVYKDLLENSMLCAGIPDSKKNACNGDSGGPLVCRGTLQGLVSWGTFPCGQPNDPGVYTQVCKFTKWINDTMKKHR
For assay [11], the target named is T6, KLK14 (Homo sapiens, UniProt Q9P0G3).
T6 construct: purchased R&D Systems 2664-SE
T6 sequence (Q9P0G3 25-251): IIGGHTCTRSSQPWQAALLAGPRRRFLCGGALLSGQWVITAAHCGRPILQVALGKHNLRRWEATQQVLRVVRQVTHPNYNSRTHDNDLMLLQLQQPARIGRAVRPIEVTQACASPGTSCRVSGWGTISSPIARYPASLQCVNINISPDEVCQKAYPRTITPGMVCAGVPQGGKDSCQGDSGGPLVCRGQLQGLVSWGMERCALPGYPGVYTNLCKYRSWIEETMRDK
As to conditions: prior findings, reference not given; cited from earlier work.

Counter-ions that a name gives are not always drawn. Like-named read-outs stand apart in the source and are kept apart here. Bridge positions count the residues as written; N and C are the ends. Peptide text beside a SMILES is read from it.

With `CCOC(=O)c1ccc(OC(=O)CCCCCN=C(N)N)cc1` [Gabexate mesylate], the IC50 in the assay with thrombin is 110000 nM; in the assay on plasmin [1], 30000 nM; in the assay on trypsin, 9400 nM; in the assay on plasma kallikrein, 41000 nM.

Take `C[C@@H](O)[C@@H]1NC(=O)[C@@H]2CSSC[C@H](NC(=O)[C@H](CCC(=O)O)NC(=O)[C@@H]3CCCN3C(=O)[C@@H]3CCCN3C(=O)[C@H](CO)NC(=O)[C@H](CO)NC(=O)[C@H](CCCNC(=N)N)NC1=O)C(=O)N[C@@H](Cc1c[nH]c3ccccc13)C(=O)N1CCC[C@H]1C(=O)N[C@@H](CC(N)=O)C(=O)NCC(=O)N[C@@H](CO)C(=O)N2` [compound 9] (cyclo(GSCTRSSPPECWPN); disulfide 3-11): at KLK7 [2], the IC50 was found to be 165 ± 12 nM. In addition, on KLK5 [3], the “selectivity for KLK5 against select KLKs in skin” value was found to be 4 fold and the IC50 is 54 ± 6 nM.

With `C[C@@H](O)[C@@H]1NC(=O)[C@@H]2CSSC[C@H](NC(=O)[C@H](CCC(=O)O)NC(=O)[C@@H]3CCCN3C(=O)[C@@H]3CCCN3C(=O)[C@H](CO)NC(=O)[C@H](CO)NC(=O)[C@H](CCCNC(=N)N)NC1=O)C(=O)N[C@@H](Cc1c[nH]c3ccccc13)C(=O)N1CCC[C@H]1C(=O)N[C@@H](CC(N)=O)C(=O)NCC(=O)N[C@@H](Cc1ccc(O)cc1)C(=O)N2` [compound 10] (cyclo(GYCTRSSPPECWPN); disulfide 3-11), the IC50 on KLK7 [2] worked out at 240 ± 14 nM. Moreover, on KLK5 [3], the “selectivity for KLK5 against select KLKs in skin” value was found to be 4 fold and the IC50 came to 56 ± 7 nM.

Usually Ki stands for a dissociation constant, usually derived from enzyme kinetics or from competition with a known ligand. In the case of Aprotinin, on plasmin [4], the Ki was 0.07 nM.

As to KLK5 (from UniProt Q9Y337), in the assay with LEKTI-2 (Homo sapiens), the Ki is 65 nM.

Consider “Sunflower trypsin inhibitor-1 (SFTI-1) 1 (peptide)”, for which the IC50 turned out to be 1290 nM with KLK8 [5], 230 nM in assay [6] and 30 nM in the assay with KLK14 [7].

“Sunflower trypsin inhibitor-1 [compound 1]”: the IC50 at KLK5 [8] is 230 ± 3 nM; at KLK8 [9], 1290 ± 51 nM.

For the molecule plasmin (from UniProt P00747), in the assay with aprotinin (Bos taurus), the Ki is 0.07 nM.

B1: LEKTI-2: LEKTI-2, encoded by SPINK9, selective binding to KLK5 (protein, UniProt Q5DT21 20-86, looked up)
Serine protease inhibitor …: IECAKQTKQMVDCSHYKKLPPGQQRFCHHMYDPICGSDGKTYKNDCFFCSKVKKTDGTLKFVHFGKC
Take B1: in the assay with KLK7 [10], the “inhibition of KLK7” value was “without potently inhibiting”. The “inhibition of KLK14” value with KLK14 [11] was “without potently inhibiting”.
